Counter-ions that a name gives are not always drawn. Like-named read-outs stand apart in the source and are kept apart here. Square brackets hold non-standard residues; d marks the D form. Peptide text beside a SMILES is read from it. * marks the point of attachment. Boc = CC(C)(C)OC(=O)*; Aib = CC(C)(N)C(=O)O; OcHex = C1CCC(O*)CC1; OBn = c1ccc(CO*)cc1; OtBu = CC(C)(C)O*; tBu = CC(C)(C)*; OAll = C=CCO*
Assays:
[1] = standing 24 hours or more
Method: Peptide samples were screened for crystal stability in several organic solvents. […] The following organic solvents were used for the study: Acetone, ACN, MeOH, EtOH, IPA, BuOH, EtOAc, MTBE, THF, MEK, toluene, and water.
30 mg samples of each peptide tetramer were dispensed into sample vials using an automated dispenser (one vial of each peptide for testing with each solvent). […] Samples were then allowed to stand for 24 hours or more.

[2] = Physical stability of crystalline solid form on isolation/drying (XRPD); type: physicochemical; conditions: for physical stability of the crystalline form: during isolation or upon air-drying/drying
[3] = Dynamic vapor sorption (DVS) analysis of hygroscopicity; type: physicochemical
Text: Crystallization of Y-Aib-E-G helps to reject impurities from the crude material. […] Crystallization of the crude Y-Aib-E-G spiked with 1% dimer (impurity) yielded a crystalline Y-Aib-E-G with almost complete rejection of the dimer. Crystallization also improves physical properties, for example, the hygroscopicity.

SMILES | Crystal Formed ([1]; solvent ACN) | Crystal Formed ([1]; solvent Acetone) | Crystal Formed ([1]; solvent BuOH) | Crystal Formed ([1]; solvent EtOAc) | Crystal Formed ([1]; solvent EtOH) | Crystal Formed ([1]; solvent H2O) | Crystal Formed ([1]; solvent IPA) | Crystal Formed ([1]; solvent MEK) | Crystal Formed ([1]; solvent MTBE) | Crystal Formed ([1]; solvent MeOH) | Crystal Formed ([1]; solvent THF) | Crystal Formed ([1]; solvent toluene) | physical stability of the crystalline form [2] | physical stability of the crystalline form after vacuum drying ([2]; vacuum drying at 32-33° C. for 1 day) | wt % gain in sorption from 0% to 95% RH [3] [wt %]
C=CCOC(=O)CCC(NC(=O)C(C)(C)NC(=O)C(Cc1ccc(OC(C)(C)C)cc1)NC(=O)OC(C)(C)C)C(=O)NCC(=O)O (stereo not drawn) [Boc—Y(tBu)-Aib-E(All)-G-COOH, Boc-Y(tBu)-Aib-E(All)-G-COOH] (Boc-Y(tBu)[Aib]E(OAll)G-OH; configuration not given here) | No | No | No | Yes | No | No | No | Yes | Yes | No | No | No | – | – | –
CC(C)(C)OC(=O)N[C@@H](Cc1ccc(OC(C)(C)C)cc1)C(=O)NC(C)(C)C(=O)N[C@@H](CCC(=O)OCc1ccccc1)C(=O)NCC(=O)O [Boc—Y(tBu)-Aib-E(Bzl)-G-COOH, Boc-Y(tBu)-Aib-E(Bzl)-G-COOH] (Boc-Y(tBu)[Aib]E(OBn)G-OH) | Yes | Yes | No | Yes | No | No | No | Yes | Yes | No | Yes | Yes | – | – | –
COC(=O)CCC(NC(=O)C(C)(C)NC(=O)C(Cc1ccc(OC(C)(C)C)cc1)NC(=O)OC(C)(C)C)C(=O)NCC(=O)O (stereo not drawn) [Boc—Y(tBu)-Aib-E(Me)-G-COOH, Boc-Y(tBu)-Aib-E(Me)-G-COOH] (Boc-Y(tBu)[Aib]E(OMe)G-OH; configuration not given here) | No | No | No | No | No | No | No | No | Yes | No | No | No | – | – | –
CC(C)(C)OC(=O)NC(Cc1ccc(OC(C)(C)C)cc1)C(=O)NC(C)(C)C(=O)NC(CCC(=O)OC1CCCCC1)C(=O)NCC(=O)O (stereo not drawn) [Boc—Y(tBu)-Aib-E(cHx)-G-COOH, Boc-Y(tBu)-Aib-E(cHx)-G-COOH] (Boc-Y(tBu)[Aib]E(OcHex)G-OH; configuration not given here) | No | No | No | No | No | No | No | No | No | No | No | No | – | – | –
CC(C)(C)OC[C@H](NC(=O)[C@H](COC(C)(C)C)NC(=O)[C@@H]1CCCN1C(=O)CN)C(=O)NCC(N)=O [G-P-S-S-G-NH2 Form A, Gly-Pro-Ser(tBu)-Ser(tBu)-Gly-NH2] (H-GPS(tBu)S(tBu)G-NH2) | – | – | – | – | – | – | – | – | – | – | – | – | physically is not stable and converts to Form B easily | – | –
CC(C)(C)OC[C@H](NC(=O)[C@H](COC(C)(C)C)NC(=O)[C@@H]1CCCN1C(=O)CN)C(=O)NCC(N)=O [G-P-S-S-G-NH2 Form B, Gly-Pro-Ser(tBu)-Ser(tBu)-Gly-NH2] (H-GPS(tBu)S(tBu)G-NH2) | – | – | – | – | – | – | – | – | – | – | – | – | – | remained as Form B | –
CC(C)(C)OC(=O)NC(Cc1cn(-c2ccc([N+](=O)[O-])cc2[N+](=O)[O-])cn1)C(=O)NC(C)(C)C(=O)NC(CCC(=O)NC(c1ccccc1)(c1ccccc1)c1ccccc1)C(=O)NCC(=O)O (stereo not drawn) [H(DNP)-Aib-Q-G Form A, (Boc)-His(dnp)-Aib-Gln(trt)-Gly] | – | – | – | – | – | – | – | – | – | – | – | – | converts to H(DNP)-Aib-Q-G Form C easily | – | –
C[C@H](N)C(=O)N1CCC[C@H]1C(=O)N1CCC[C@H]1C(=O)N1CCC[C@H]1C(=O)N[C@@H](COC(C)(C)C)C(N)=O [H-A-P-P-P-S-NH2 HCl Form A, H-Ala-Pro-Pro-Pro-Ser(tBu)-NH2] (H-APPPS(tBu)-NH2) | – | – | – | – | – | – | – | – | – | – | – | – | loses crystallinity upon isolation/drying | – | –
CC(C)(C)OC(=O)CC[C@H](NC(=O)C(C)(C)NC(=O)[C@H](Cc1ccc(OC(C)(C)C)cc1)NC(=O)OC(C)(C)C)C(=O)NCC(=O)O [Y-Aib-E-G Form B, Boc-l-Tyr (tBu)-Aib-Glu(OtBu)-Gly-OH] (Boc-Y(tBu)[Aib]E(OtBu)G-OH) | – | – | – | – | – | – | – | – | – | – | – | – | – | – | 1.4
CC(C)(C)OC(=O)CC[C@H](NC(=O)C(C)(C)NC(=O)[C@H](Cc1ccc(OC(C)(C)C)cc1)NC(=O)OC(C)(C)C)C(=O)NCC(=O)O [amorphous Y-Aib-E-G, Boc-l-Tyr (tBu)-Aib-Glu(OtBu)-Gly-OH] (Boc-Y(tBu)[Aib]E(OtBu)G-OH) | – | – | – | – | – | – | – | – | – | – | – | – | – | – | 4.1

From patent US20260226102A1, “PEPTIDES FOR INCRETIN SYNTHESIS” (priority 2022, published 2026)
